Results: patent US20180319865A1, “Identification of Novel Small Molecule Beta2 Integrin Agonists” (Rush University Medical Center, priority 2016, published 2018)
pEC50: −log10 of the molar value.

How the values were obtained:
[1] = biological target: T1, mutant integrin CD11bE320A/CD18 (Homo sapiens, UniProt P11215, E336A); experiment: HTS cell adhesion assay, K562 E320A cells on immobilized fibrinogen; format: cell-based; conditions: Table 3, adhesion to fibrinogen, five point dose-response
T1 construct: expressed in transfected cells; host or cells: K562 (ATCC)
Description: K562 cells stably expressing CD11c/CD18 (K562 CD11c/CD18) were generated similarly. […] K562 cells stably transfected with mutant integrin CD11bE320A/CD18 (K562 E320A) were generated according to literature protocols. All cell lines were maintained in Iscove's Modified Dulbecco's Medium (IMDM) supplemented with 10% heat-inactivated fetal bovine serum, 50 IU/mL penicillin and streptomycin and 0.5 mg/mL G418.
(§1) Cell adhesion assays with immobilized ligands were performed using the general protocol previously described and as illustrated in FIG. 1 [33]. Assays with all different K562 cell lines (K562, K562 CD11b/CD18, K562 CD11c/CD18 and K562 E320A) were performed in an identical fashion. Briefly, 384-well microplates (Corning 3700) were coated with 15 μg/mL fibrinogen (Fg) ligand in PBS^++ overnight at 4° C. At the same time, anti-CD18 (IB4) mAb was also coated. Subsequently, the coated wells were washed with 1% nonfat milk in TBS at room temperature for 1 hour. Next, the wells were washed 3 times with TBS, and the coated microplates were used in the HTS assays.
(§2) K562 CD11b/CD18, K562 CD11bE320A/CD18 and K562 CD11c/CD18 cells were washed with TBS, and cells were transferred to the Fg-coated wells of microplates in the assay buffer (Ca^2+ and Mg^2+ for physiological condition, Mn^2+ as the Positive control). A 1 μL aliquot of the compounds were transferred to each washed well with multichannel pipet from the 384-well plates.
(§3) The assay plates were incubated at 37° C. in the presence of small-molecule compounds for 30 min. To dislodge the non-adherent cell, the assay plates were gently inverted and kept in inverted position for 20 min at room temperature.
(§4) The cells were fixed with 37% formaldehyde in a small volume and the plates were kept inverted for 1 h. Upon the fixation, the solutions in the well were discarded. Next, the cells were fluorescently labeled with DAPI (0.5 μM final in TBS with 0.1% Triton X-100) and the quantitated with “Opera High Content Screening System” (Perkin Elmer).
(§5) Cell-adhesion under positive and negative control conditions was used to define the activity scale; signal corresponding to the number of non-small molecule treated cells adherent in activating buffer condition (in the presence of Mn^2+ ions as agonist, PC) was considered maximum (100% binding) and the signal corresponding to the number of non-small molecule treated cells adherent in basal buffer condition (in the presence of 1 mM each of Ca^2+ and Mg^2+, NC) was considered minimum (0% binding).

integrin CD11c/CD18 = biological target: T2, integrin CD11c/CD18 (Homo sapiens, UniProt P20702); experiment: HTS cell adhesion assay, K562 CD11c/CD18 cells on immobilized fibrinogen; format: cell-based; conditions: for EC50 CD11c/CD18: Table 3, K562 CD11c/CD18 cells, adhesion to fibrinogen, dose-response
T2 construct: expressed in transfected cells; host or cells: K562 (ATCC)
Description: K562 cells stably expressing CD11c/CD18 (K562 CD11c/CD18) were generated similarly. Mutant CD11bE320A has been described previously. K562 cells stably transfected with mutant integrin CD11bE320A/CD18 (K562 E320A) were generated according to literature protocols. All cell lines were maintained in Iscove's Modified Dulbecco's Medium (IMDM) supplemented with 10% heat-inactivated fetal bovine serum, 50 IU/mL penicillin and streptomycin and 0.5 mg/mL G418.
as §1, §2, §3, §4
as §5, with “binding). […]” for “binding).”
The compounds were diluted in DMSO by the final concentration 10 μM, 5 μM, 2.5 μM, 1.25 μM and 0.625 μM and stocked as sealed in 384-well plates at −80° C.

T2 sequence (P20702 with tags, fused parts or gaps): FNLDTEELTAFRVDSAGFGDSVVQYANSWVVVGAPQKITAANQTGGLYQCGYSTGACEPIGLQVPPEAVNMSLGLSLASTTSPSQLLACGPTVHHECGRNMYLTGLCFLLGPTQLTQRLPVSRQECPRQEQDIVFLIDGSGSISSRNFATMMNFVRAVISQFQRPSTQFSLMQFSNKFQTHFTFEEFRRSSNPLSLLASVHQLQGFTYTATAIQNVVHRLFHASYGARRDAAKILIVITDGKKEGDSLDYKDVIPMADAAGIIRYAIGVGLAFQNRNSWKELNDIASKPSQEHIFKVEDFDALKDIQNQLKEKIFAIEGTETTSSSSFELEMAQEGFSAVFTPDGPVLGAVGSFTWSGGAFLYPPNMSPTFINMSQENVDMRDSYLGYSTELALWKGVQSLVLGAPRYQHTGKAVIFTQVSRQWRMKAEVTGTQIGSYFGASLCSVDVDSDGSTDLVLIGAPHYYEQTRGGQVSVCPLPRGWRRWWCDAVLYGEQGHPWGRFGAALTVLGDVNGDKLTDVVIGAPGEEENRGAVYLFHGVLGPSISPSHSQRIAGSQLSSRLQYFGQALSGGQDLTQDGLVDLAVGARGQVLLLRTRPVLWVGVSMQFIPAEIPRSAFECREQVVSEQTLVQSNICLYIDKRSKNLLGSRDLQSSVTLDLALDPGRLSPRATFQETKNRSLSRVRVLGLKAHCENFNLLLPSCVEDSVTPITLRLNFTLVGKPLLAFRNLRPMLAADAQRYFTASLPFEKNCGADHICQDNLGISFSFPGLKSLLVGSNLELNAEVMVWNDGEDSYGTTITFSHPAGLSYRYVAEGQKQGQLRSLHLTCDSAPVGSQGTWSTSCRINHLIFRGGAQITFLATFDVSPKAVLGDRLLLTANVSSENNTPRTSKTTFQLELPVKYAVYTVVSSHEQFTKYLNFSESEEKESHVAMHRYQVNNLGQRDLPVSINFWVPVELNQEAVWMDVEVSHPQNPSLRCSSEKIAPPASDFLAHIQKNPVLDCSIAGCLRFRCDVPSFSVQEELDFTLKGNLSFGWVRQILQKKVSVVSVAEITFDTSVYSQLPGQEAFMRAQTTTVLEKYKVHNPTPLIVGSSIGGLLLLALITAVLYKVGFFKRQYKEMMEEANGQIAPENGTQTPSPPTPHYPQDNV
T2 sequence (P05107 23-769 partner): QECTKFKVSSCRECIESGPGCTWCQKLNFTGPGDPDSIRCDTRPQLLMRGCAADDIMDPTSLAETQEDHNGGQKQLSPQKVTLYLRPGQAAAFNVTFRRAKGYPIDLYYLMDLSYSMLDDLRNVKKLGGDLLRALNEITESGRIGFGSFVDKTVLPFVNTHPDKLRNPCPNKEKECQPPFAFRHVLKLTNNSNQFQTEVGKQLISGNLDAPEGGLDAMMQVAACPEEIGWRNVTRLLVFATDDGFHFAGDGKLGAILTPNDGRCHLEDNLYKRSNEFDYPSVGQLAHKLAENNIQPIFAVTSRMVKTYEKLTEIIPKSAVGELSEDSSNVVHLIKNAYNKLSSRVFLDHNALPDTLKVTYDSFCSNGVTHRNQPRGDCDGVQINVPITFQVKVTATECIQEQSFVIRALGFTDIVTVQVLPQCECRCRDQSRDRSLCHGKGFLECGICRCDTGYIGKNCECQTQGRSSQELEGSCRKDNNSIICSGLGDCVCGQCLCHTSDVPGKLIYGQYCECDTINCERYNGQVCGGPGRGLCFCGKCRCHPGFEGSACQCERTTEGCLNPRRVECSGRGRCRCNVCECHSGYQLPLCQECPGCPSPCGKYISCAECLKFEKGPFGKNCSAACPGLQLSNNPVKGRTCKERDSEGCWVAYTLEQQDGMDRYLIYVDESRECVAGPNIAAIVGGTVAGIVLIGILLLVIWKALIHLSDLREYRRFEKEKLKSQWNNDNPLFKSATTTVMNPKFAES
T1 sequence (P11215 17-1152 E336A): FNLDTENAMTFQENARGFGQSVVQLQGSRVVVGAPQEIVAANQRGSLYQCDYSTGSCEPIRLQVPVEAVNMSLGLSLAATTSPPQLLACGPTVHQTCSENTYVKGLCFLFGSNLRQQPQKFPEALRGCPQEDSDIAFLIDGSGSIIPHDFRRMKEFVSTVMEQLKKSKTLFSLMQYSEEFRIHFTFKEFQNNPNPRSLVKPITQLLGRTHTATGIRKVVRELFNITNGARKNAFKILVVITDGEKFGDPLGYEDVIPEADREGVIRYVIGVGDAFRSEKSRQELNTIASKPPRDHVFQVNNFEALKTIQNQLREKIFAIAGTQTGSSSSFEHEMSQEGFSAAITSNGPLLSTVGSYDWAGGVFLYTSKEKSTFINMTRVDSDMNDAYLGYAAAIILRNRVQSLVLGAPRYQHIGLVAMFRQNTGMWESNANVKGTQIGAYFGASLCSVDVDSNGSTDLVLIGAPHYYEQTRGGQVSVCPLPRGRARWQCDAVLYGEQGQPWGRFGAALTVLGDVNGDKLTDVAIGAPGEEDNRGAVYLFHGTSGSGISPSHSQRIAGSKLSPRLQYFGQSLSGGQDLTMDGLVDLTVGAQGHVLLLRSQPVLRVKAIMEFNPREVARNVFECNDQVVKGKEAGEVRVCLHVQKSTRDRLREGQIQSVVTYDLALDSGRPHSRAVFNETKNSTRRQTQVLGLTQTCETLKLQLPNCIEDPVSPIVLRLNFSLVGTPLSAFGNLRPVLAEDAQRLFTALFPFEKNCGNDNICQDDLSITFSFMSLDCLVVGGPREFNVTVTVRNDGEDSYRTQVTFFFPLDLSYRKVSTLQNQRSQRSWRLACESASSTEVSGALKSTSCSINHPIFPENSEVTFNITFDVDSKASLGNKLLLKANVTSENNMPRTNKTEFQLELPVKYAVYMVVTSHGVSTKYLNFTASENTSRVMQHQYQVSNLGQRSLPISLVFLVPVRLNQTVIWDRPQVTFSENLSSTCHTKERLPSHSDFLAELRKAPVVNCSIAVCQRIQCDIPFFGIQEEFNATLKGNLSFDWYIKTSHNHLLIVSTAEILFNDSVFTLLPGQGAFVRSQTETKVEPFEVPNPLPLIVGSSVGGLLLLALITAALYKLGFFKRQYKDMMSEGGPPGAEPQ
T1 sequence (P05107 23-769 partner): as the sequence (P05107 23-769 partner) above

pEC50 [1] | pEC50 (integrin CD11c/CD18) | EC50 CD11c/CD18 (integrin CD11c/CD18) | SMILES
5.20 | 5.28 |  | C=CCn1c(SCC(=O)c2ccc(CNC(C)=O)o2)nc2scc(C3CC3)c2c1=O [Compound 2569132]
5.55 | 5.39 |  | Cc1ccc2nc(-c3ccc(NC(=O)COC(=O)c4cncc(Br)c4)cc3)sc2c1 [Compound 2365417]
5.17 | 5.37 |  | CCOc1ccc(NC(=O)c2ccc(CNc3c(NC4CCCCC4)c(=O)c3=O)cc2)cc1 [Compound 11957216]
5.27 | 5.52 |  | CCc1nnc(NC(=O)c2sc3nc4c(cc3c2N)CCCCCC4)s1 [Compound 5143923]
5.30 | 5.67 |  | CCn1c(=NC(=O)c2ccc(N3C(=O)CCC3=O)cc2)sc2c(OC)ccc(OC)c21 [Compound 2150886]
5.40 | 5.56 |  | COc1ccc2nc(SCC(=O)Nc3ccc4sc(C)nc4c3)c(C#N)cc2c1 [Compound 1164441]
5.35 | 5.27 |  | Cc1ccc(-c2nc3ncccc3o2)cc1NC(=O)c1sc2ccccc2c1Cl [Compound 1132508]
5.23 | 5.52 |  | O=C(Nc1nc(-c2ccco2)c(-c2ccco2)s1)C1CC(=O)N(c2ccc3c(c2)OCCO3)C1 (stereo not drawn) [Compound 2998894]
5.19 | 4.98 |  | O=C(Nc1nnc(-c2ccccc2SCc2ccccc2)s1)Nc1ccccc1F [Compound 1964957]
5.24 | 5.65 |  | N=C1/C(=C\c2ccc(-c3cc(Cl)cc(Cl)c3)o2)C(=O)N=C2SC=C(c3ccccc3)N12 [Compound 1599902]
5.80 | 6.21 |  | COC(=O)c1[nH]c2ccccc2c1NC(=O)CN1CCCc2ccccc21 [Compound 658682]
5.48 | 5.57 |  | Cc1ccsc1/C=C/C1=Cc2c(sc(NC(=O)CSc3nnc(N)[nH]3)c2C#N)C(C)(C)C1 [Compound 2083967]
5.38 | 5.48 |  | Cc1ccc(-n2nnnc2SCC(=O)Nc2ccc3c(c2)COC3=O)cc1C [Compound 1227337]
5.18 | 5.75 |  | CCOC(=O)c1c(NC(=O)c2cc(-c3ccc(Cl)s3)nc3ccccc23)sc(C(N)=O)c1C [Compound 2163411]
6.00 | 6.25 |  | COC(=O)c1[nH]c2ccc(C)cc2c1NC(=O)CN1CCCc2ccccc21 [Compound 658948]
5.22 | 5.30 |  | CC1CCN(S(=O)(=O)c2ccc(NC(=O)Cn3nnc(-c4ccccc4)n3)cc2)CC1 [Compound 652267]
5.29 | 5.70 |  | CCOC(=O)Cc1csc(NC(=O)c2sc3nc4c(C)cc(C)cc4cc3c2N)n1 [Compound 3207334]
4.66 |  | Infinite | N#C/C(=C\c1ccc(OCc2ccccc2)cc1)C(=O)Nc1nc2c(s1)CCN(Cc1ccccc1)C2 [Compound 2327777]
3.59 |  | Infinite | Cn1c(C(=O)NCCN2CCc3ccccc3C2)cc2c(=O)n(C)c3ccccc3c21 [Compound 5309909]
5.46 | 5.64 |  | Cc1cc(C)cc(OCC(=O)Nc2ccc(N3CCCC3)cc2)c1 [Compound 960705]
5.17 | 5.61 |  | Cc1ccccc1Cn1c(=O)n(CC2CCC(C(=O)NCCc3ccccc3)CC2)c(=O)c2ccccc21 (stereo not drawn) [Compound 12006068]
5.33 | 5.89 |  | Cc1ccc(-c2ccc(/C=C(\C#N)C(=O)Nc3cc(C)nn3-c3ccccc3)o2)cc1 [Compound 1554430]
5.55 | 5.72 |  | O=C1Nc2ccccc2SC(c2ccccc2)C1O (stereo not drawn) [Compound 3242458]
5.43 | 5.87 |  | Cc1ccc(CCN2CC(C(=O)NCCCN3CCCCCC3)CC2=O)cc1 (stereo not drawn) [Compound 3237466]

pEC50 [1] | pEC50 (integrin CD11c/CD18) | EC50 CD11c/CD18 (integrin CD11c/CD18) | SMILES
5.22 | 5.20 |  | Cc1onc(-c2c(Cl)cccc2Cl)c1C(=O)NC(=S)Nc1sc2c(c1C(N)=O)CCC(C)C2 (stereo not drawn) [Compound 3466680]
5.31 | 5.34 |  | COc1ccc(-c2nnn(CC(=O)Nc3sc4c(c3C#N)CCCC4)n2)cc1 [Compound 652695]
5.15 | 5.51 |  | O=C(Nc1ccc(NC(=O)c2ccc(S(=O)(=O)c3ccccc3)cc2)cc1)c1ccccc1 [Compound 1144109]
5.26 | 5.26 |  | Cc1ccc(-n2c(N)c(C(=O)Nc3c(C)n(C)n(-c4ccccc4)c3=O)c3nc4ccccc4nc32)cc1 [Compound 1949560]
4.82 |  | Infinite | CCc1cc(=O)oc2cc(C)c3c(C)coc3c12 [Compound 707842]
5.01 |  | Infinite | O=C(Oc1ccc2c(=O)c(Oc3ccc4ccccc4c3)coc2c1)c1cncc(Br)c1 [Compound 1045434]
5.16 | 5.60 |  | COc1ccccc1NC(=O)c1sc2ncn(Cc3ccc(C)cc3)c(=O)c2c1C [Compound 1078286]
5.57 | 5.86 |  | Cc1ccc2nsnc2c1NC(=O)c1ccc(-c2cc(Cl)ccc2Cl)o1 [Compound 1334850]
5.51 | 5.67 |  | N=C1/C(=C\c2ccc(-c3cccc(Cl)c3)o2)C(=O)N=C2SC=C(c3ccccc3)N12 [Compound 1984877]
5.31 | 5.58 |  | CSc1nc(N(CCO)CCO)c2sc3nc(-c4ccco4)c4c(c3c2n1)CCC4 [Compound 665142]
5.60 | 5.60 |  | C=CCOC(=O)c1cc(-c2ccc(/C=C3\C(=O)NC(=O)C(C#N)=C3C)o2)ccc1Cl [Compound 5769297]
4.89 |  | Infinite | COC(=O)c1cc(OC)c(OC)cc1NC(=O)c1cc(-c2ccccc2)nc2ccccc12.Cl [Compound 2965657]
5.28 | 5.33 |  | CCCCn1c(SCC(=O)c2ccc(OC)cc2OC)nc2cc(S(N)(=O)=O)ccc21 [Compound 2997788]
5.39 | 5.39 |  | Nc1c(C(=O)Nc2nccs2)sc2nc(-c3cccs3)cc(C(F)(F)F)c12 [Compound 2252798]
5.21 | 5.23 |  | COc1cc(NC(=O)Cn2c(=O)n(-c3cccc(C)c3)c(=O)c3c(C)c(C)sc32)cc(OC)c1 [Compound 12004750]
5.35 | 5.73 |  | O=C(Nc1nccs1)c1cccc(N2C(=O)c3cccc4c([N+](=O)[O-])ccc(c34)C2=O)c1 [Compound 2254616]
4.98 |  |  | COc1cc(NC(=O)c2noc3c2CCC3)c(OC)cc1Cl [Compound 3238190]
4.86 |  |  | O=C(Cn1c2ccccc2c(=O)c2ccccc21)N/N=C/c1ccc(N2CCCC2)c([N+](=O)[O-])c1 [Compound 5347156]
4.42 |  |  | Cn1c(SCC(=O)Nc2ccc3c(c2)oc2ccccc23)nnc1-c1ccccc1 [Compound 2193118]
5.09 |  |  | Cc1ccc(-n2c(=O)c(C#N)cc3c(=O)n4cccc(C)c4nc32)cc1 [Compound 9550569]
5.09 |  |  | O=C(N/N=C\C=C\c1ccco1)c1cc(-c2ccc3ccccc3c2)[nH]n1 [Compound 6030986]
4.99 |  |  | O=C(/C=C/c1ccco1)c1ccc(NC(=O)C23CC4CC(CC(C4)C2)C3)cc1 [Compound 7424594]
4.97 |  |  | CC(=O)c1ccc(NC(=O)CSc2ccc(-c3ccc4c(c3)OCO4)nn2)cc1 [Compound 7206282]
5.07 |  |  | CC(=O)NC(=S)Nc1ccc(-c2nc3ccc(C)cc3s2)cc1 [Compound 1226649]

SMILES | pEC50 [1] | pEC50 (integrin CD11c/CD18) | EC50 CD11c/CD18 (integrin CD11c/CD18)
Cc1cc(/C=C2\C(=O)NC(=O)N(c3ccc(Cl)cc3)C2=O)c(C)n1-c1sc2c(c1C#N)CCCC2 [Compound 1418314] | 5.02 |  | 
Cc1cc(C=C2C(=O)N(C)C(=S)N(C)C2=O)c(C)n1C1CCCCC1 [Compound 1347165] | 3.77 |  | 
